Patent US5656603A (Loyola University of Chicago, priority 1995, dated 1997)
“And” between values parts separate entries of the source, which are not always exact repeats. Equal entries are not always repeated.

Experiments:
[1] = target: T1, aminopeptidase A (EC 3.4.11.7) (Rattus norvegicus, UniProt P50123); assay: Specificity of apstatin: aminopeptidase A; type: biochemical; conditions: rat lung microsomes; α-Glu-β-Na, pH 6.8, HPLC-1
T1 construct: aminopeptidase A (EC 3.4.11.7) (rat lung microsomes); from tissue; host or cells: rat lung microsomes
Protocol: (§1) Specificity of Apstatin--Apstatin was assayed for its ability to inhibit several other peptidases. […] Unless otherwise indicated, the source of each enzyme activity was a detergent extract of bovine lung prepared as described in (12-13). Activities were determined by a modification of the fluorescent assay described above (indicated by "FLUO") or by HPLC separation and quantitation of reaction products using the method described in (12) (method "HPLC-1") or the method described below (method "HPLC-2"). […]

[2] = target: bestatin-sensitive/amastatin-insensitive membrane dipeptidase; assay: Specificity of apstatin: bestatin-sensitive/amastatin-insensitive membrane dipeptidase; type: biochemical; conditions: bovine lung microsomes; Arg-Trp, pH 6.8, FLUO
Protocol: as §1

[3] = test system: [3H]-bradykinin degradation in the isolated perfused rat lung; assay: [3H]-bradykinin degradation in the isolated perfused rat lung (HPLC of perfusate)
Protocol: Using the procedure described herein, under Experimental Procedures it was determined that aminopeptidase P contributed to Bk degradation in the mammalian lung. In that procedure, [^3 H]-Bk (labelled in Pro^2 and Pro^3) was perfused through the isolated lung in the presence or absence of various peptidase inhibitors. The perfusate was then analyzed for radiolabelled products by HPLC. […] Most of the radioactivity (an average of 79%) was in the form of [^3 H]-Pro-Pro [Bk(2-3)] with the remainder being [^3 H]-Bk(1-5). It was hypothesized that pulmonary vascular aminopeptidase P was cleaving the Arg'-Pro^2 bond followed by rapid removal of Pro-Pro by dipeptidylpeptidase IV (DPP IV) (12). Simultaneously, angiotensin converting enzyme (ACE) was sequentially removing Phe-Arg and Ser-Pro from the C-terminus (13). […] However, most of the radioactivity remained in the Pro-Pro peak indicating substantial cleavage of Bk at the N-terminal end.
Perfusion of the Isolated Rat Lung--Male Sprague Dawley rats, weighing 300-500 grams, were anesthetized with sodium pentobarbital (50-75 mg/kg) given by intraperitoneal injection. The trachea was cannulated and the lungs ventilated with air at 70 cycles per minute (Harvard Small Animal Ventilator) at a pressure of 70 mm H2 O. The heart and lungs were exposed via midsternal incision and 1000 units of heparin were administered intracardially. Polyethylene cannulae were secured into the pulmonary artery and the left ventricle. A modified Krebs buffer (118.5 mM NaCl, 4.7 mM KCl, 1.1 mM KH2 PO4, 1.1 mM MgSO4, 2.5 mM CaCl2, 19.6 mM NaHCO3, 5.6 mM dextrose), which was kept in a 50° C. water bath and aerated with 95% O2 -5% CO2 to pH 7.35, was perfused into the pulmonary artery at 35° C. and 2.6 ml/min (LKB Microperplex peristaltic pump). The buffer was circulated through the isolated lung in situ until the effluent was free of blood. The surgical field was maintained at 37° .C with a heat lamp throughout the procedure. Experiments were conducted by introducing [^3 H]-Bk in the presence or absence of test peptidase inhibitors into the pulmonary circulation via the pulmonary artery and then collecting perfusion effluent from the left ventricular cannula. […] The lung was then perfused with 1 μCi [^3 H]-Bk in 1 ml of the inhibitor solution (giving 16 nM Bk) followed by inhibitor solution alone. Effluent was collected in tubes (0.5 min/fraction) containing 150 μl of 2% TFA. For each lung preparation, 5-6 samples were perfused over a period of about one hour. Control perfusions of [^3 H]-Bk alone were always carried out before perfusions of samples containing ramiprilat because of the slow reversibility of inhibition of ACE by this compound. […] The effects of the latter two inhibitors were reversible.
Separation and Identification of Bradykinin Metabolites--The fractions which were collected from each perfusion sample run were counted for radioactivity, and the fraction having the highest radioactive counts was prepared for HPLC by filtration through a Centricon-10 microconcentrator (Amicon). An aliquot of the filtrate containing 25000 dpm (approx. 25 μl) was spiked with a cocktail of unlabelled Bk fragments (3 μl) and then subjected to HPLC using a Waters Radial Compression Separation System with a 5μ NOVA PAK C18 Radial Pak Cartridge. The column was developed at a flow rate of 1 ml/min with a 60 min linear gradient from 100% Solvent A (0.1% TFA in water) to 75% Solvent A: 25% Solvent B (0.08% TFA in acetonitrile) using a Spectra Physics 8700XR Solvent Delivery System. The column effluent was simultaneously monitored for absorbance at 206 nm (LKB Uvicord S) and for radioactivity (Radiomatic Flo-One HS Radioactive Flow Detector using Ultima-Flo M scintillation fluid from Packard, Meriden, Conn.). […] Radioactive peaks were identified by comparison of the retention times to those of the unlabelled standards. […]

T1 sequence (P50123 whole entry): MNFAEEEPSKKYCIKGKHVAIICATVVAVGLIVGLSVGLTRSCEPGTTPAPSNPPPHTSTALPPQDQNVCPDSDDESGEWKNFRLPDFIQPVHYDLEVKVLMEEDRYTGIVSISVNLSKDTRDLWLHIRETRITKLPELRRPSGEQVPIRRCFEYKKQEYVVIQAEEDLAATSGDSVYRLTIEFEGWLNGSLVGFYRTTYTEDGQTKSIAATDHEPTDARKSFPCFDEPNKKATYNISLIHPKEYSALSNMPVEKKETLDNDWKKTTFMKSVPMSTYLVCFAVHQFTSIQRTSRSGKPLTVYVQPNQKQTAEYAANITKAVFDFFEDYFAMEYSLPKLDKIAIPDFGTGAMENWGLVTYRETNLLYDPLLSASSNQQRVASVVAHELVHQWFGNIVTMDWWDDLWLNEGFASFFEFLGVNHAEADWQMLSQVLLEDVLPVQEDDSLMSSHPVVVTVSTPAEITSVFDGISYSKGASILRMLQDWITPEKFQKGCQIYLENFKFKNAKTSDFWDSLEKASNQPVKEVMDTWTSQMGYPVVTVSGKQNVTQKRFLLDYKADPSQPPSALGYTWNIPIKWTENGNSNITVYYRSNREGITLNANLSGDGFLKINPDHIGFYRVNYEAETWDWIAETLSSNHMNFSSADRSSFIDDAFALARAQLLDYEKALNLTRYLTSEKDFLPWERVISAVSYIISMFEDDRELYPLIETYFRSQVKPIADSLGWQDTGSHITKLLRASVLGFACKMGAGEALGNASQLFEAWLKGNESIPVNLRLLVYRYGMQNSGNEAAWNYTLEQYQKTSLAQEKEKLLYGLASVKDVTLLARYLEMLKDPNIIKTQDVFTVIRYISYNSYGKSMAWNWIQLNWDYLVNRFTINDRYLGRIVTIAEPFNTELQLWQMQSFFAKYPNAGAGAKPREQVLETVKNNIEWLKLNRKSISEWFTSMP

In the case of `C[C@H](NC(=O)[C@@H]1CCCN1C(=O)[C@@H]1CCCN1C(=O)[C@@H](O)[C@H](N)Cc1ccccc1)C(N)=O` [apstatin, N-[(2S, 3R)-3-amino-2-hydroxy-4-phenylbutanoyl]-L-prolyl-L-prolyl-Lalaninamide], the IC50 [1] is reported as over 800 µM, the IC50 [2] is reported as over 800 µM and the “percentage of radioactivity eluting from the lung as intact [3H]-Bk” value ([3]; apstatin 40 μM together with ramiprilat (0.5 μM), mean ± SEM, three rats) is reported as 92±4% and 92%. The “percentage of radioactivity eluting from the lung as intact [3H]-Bk” value ([3]; apstatin alone (data not shown), difficult to quantitate accurately) was 1-3%.
